{"source": "patent US20130079228A1", "about": "“Agricultural spray solution compositions and methods” (priority 2011, published 2013)", "system": "velvetleaf", "experiment": "efficacy of glyphosate spray on velvetleaf", "format": "in vivo", "conditions": "in presence of drift reducing adjuvants, especially DR", "description": "Applicant's invention further contemplates the use of drift management adjuvants on the atomization, drift, patternation, retention, deposit formation, and efficacy of an herbicide spray. The drift of the spray particles decreases by suppressing the formation of fine droplets, i.e., <150 microns in diameter. The impact of drift reducing additives on pesticide efficacy in terms of the effect on the major phases, i.e., the larger droplets, on the dose transfer process is also considered. Two representative drift reducing adjuvants, i.e., (1) polyacrylamide polymers represented by Nalcotrol or Nalcotrol II (N or N2), and (2) biodegradable polymers represented by AgRHO DR-2000 (DR) of Rhone-Poulenc Inc. were considered in mixtures containing glyphosate.\nPattern distributions undergo significant deviations from even distributions using herbicide alone when polymers are added. […] 30% less spray is reflected from the cabbage leaves from mixtures containing DR compared to either water alone or water containing polyacrylamide polymers. Spray retention is reduced by the addition of drift reducing adjuvants. DR is better at wetting the cabbage leaves. […] The efficacy of glyphosate on velvetleaf is enhanced by the presence of drift reducing adjuvants, especially DR. […]", "data": [{"compound": "O=C(O)CNCP(=O)(O)O", "note": "[glyphosate]", "values": [{"measurement": "efficacy of glyphosate on velvetleaf", "value": "enhanced"}]}]}
